This passage reports inhibition and IC50 results from US20140205537A1, “LRRK2 INHIBITORS” (ZENOBIA THERAPEUTICS, INC., priority 2011, published 2014).

For assay [1], the target named is G2019S LRRK2 (Homo sapiens, UniProt Q5S007, G2019S). The assay can be described thus: G2019S LRRK2 inhibition (Invitrogen SelectScreen / TR-FRET biochemical assay). Also noted: The protein construct used in the assay is GST tagged 969-2527; GST; purchased Invitrogen. Conditions: for IC50: numeric value. As to the method:
IC50s were determined using Invitrogen's SelectScreen® Profiling Service for wild type and LRRK2 G2019S. The test compounds were screened in 1% DMSO (final) in the well.
a) % inhibition is measured at one concentration
b) a 10-point titration is run to ensure the kinase is inhibited within an expected IC50 range
Biochemical Assay Protocol:
Compound potency against wild-type and G2019S LRRK2 is measured via TR-FRET. The IC50, the amount of inhibitor required to inhibitor 50% of the protein under the given assay conditions, is determined by varying the amount of compound (500-0.001 uM) by serial dilution with 12-data points per compound, in duplicate. The substrate (Fluorescein-GAGRLGRDKYKTLRQIRQ) and ATP is fixed at 0.8 uM and 57 uM (KmATP), respectively. All assays are run in Corning low volume […] round bottomed plates. The assay is run in 50 mM Tris-HCl pH8.5, 10 mM MgCl2, 0.01% Brij-35, 1 mM EGTA, 2 mMDTT. The TR-FRET assay is an end-point assay where the reaction with protein, substrate, inhibitor and ATP is incubated for 1 hour at room temperature. The compound is pre-incubated with the protein and substrate prior to initiating the reaction with ATP. Phospho-transfer is detected using a Terbium labeled anti-pLRRKtide that binds to phosphorylated substrate creating FRET transfer when excited at 340 nm. Emissions signals are taken for terbium and FRET induced fluorescein at 495 nm and 520 nm, respectively, using a Biotek Synergy 2 spectrophotometer. The dose response is determined by plotting the emission ratio of 520/495 against the log of the inhibitor concentration. The maximum inhibition and non-inhibition controls is run on all plates. Staurosporine is used as the positive inhibition control and DMSO is used as the negative point control. A 12-point dose curve of Staurosporine is run as a dosing control. The IC50 is determined to be the inhibitor concentration at which 50% inhibition is achieved. The protein construct used in the assay is GST tagged 969-2527. The protein is commercially available from Invitrogen.
Alternatively, compounds of formulas (II), (I), (I-A), (I-B), (I-C), (I-D), (I-D-1), (I-D-2), (I-E), (I-F), (I-G), (I-H), (I-I), (I-I-1), (I-I-2), (I-J), (I-K), (I-L), (I-M), (I-N), (I-Z-1), (I-Z-2), (I-Z-2-a), (I-Z-2-b), (I-Z-2-c), (I-Z-2-d), (I-Z-3-a), (I-Z-3-b), (I-Z-3-c), or (I-Z-3-d) were tested using Invitrogen's SelectScreen® Profiling Service for LRRK2 G2019S.
On the technique in general: Time-resolved FRET reads energy transfer from a long-lived donor to a nearby acceptor.

The target in assay [2] is ABL1 (Homo sapiens, UniProt P00519). The assay is described as follows: Kinase selectivity panel: ABL1. The assay is classed as biochemical.
Assay [3] has as its target T1, AURKA (Homo sapiens, UniProt O14965).
T1 sequence (O14965 1-403): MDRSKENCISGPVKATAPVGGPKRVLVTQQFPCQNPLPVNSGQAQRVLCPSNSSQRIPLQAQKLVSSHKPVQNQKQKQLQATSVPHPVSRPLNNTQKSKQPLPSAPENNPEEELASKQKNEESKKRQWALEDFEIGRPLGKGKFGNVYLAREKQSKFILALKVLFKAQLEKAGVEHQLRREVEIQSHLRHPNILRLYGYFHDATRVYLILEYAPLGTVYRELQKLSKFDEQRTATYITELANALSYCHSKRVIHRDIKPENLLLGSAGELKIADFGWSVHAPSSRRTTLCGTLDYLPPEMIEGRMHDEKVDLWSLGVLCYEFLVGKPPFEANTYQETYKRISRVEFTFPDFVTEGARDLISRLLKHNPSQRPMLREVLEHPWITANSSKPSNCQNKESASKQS
The assay is described as follows: Kinase selectivity panel: AURKA. The class given is biochemical.

The target in assay [4] is CAMK2D (Homo sapiens, UniProt Q13557). The assay is described as follows: Kinase selectivity panel: CAMK2D. The assay is classed as biochemical.
Assay [5] has as its target CDK5/p35 (Homo sapiens, UniProt Q00535). The assay is described as follows: Kinase selectivity panel: CDK5/p35. The assay is classed as biochemical.
The target in assay [6] is T2, CHEK1 (Homo sapiens, UniProt O14757).
T2 sequence (O14757 1-476): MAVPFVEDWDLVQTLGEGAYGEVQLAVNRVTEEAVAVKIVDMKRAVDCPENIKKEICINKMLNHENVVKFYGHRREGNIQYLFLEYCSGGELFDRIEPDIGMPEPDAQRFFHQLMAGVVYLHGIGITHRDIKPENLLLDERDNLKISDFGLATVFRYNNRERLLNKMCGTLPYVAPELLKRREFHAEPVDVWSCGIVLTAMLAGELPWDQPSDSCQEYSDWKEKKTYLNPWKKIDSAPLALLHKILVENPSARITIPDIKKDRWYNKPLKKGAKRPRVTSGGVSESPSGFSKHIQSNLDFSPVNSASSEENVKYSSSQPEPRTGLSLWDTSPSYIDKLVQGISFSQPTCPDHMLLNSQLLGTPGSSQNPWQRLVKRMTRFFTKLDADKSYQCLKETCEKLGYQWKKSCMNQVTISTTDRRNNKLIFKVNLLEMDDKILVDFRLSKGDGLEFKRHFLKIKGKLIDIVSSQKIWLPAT
The assay is described as follows: Kinase selectivity panel: CHEK1. The assay is classed as biochemical.

Assay [7] deals with T3, IRAK4 (Homo sapiens, UniProt Q9NWZ3).
T3 sequence (Q9NWZ3 1-460): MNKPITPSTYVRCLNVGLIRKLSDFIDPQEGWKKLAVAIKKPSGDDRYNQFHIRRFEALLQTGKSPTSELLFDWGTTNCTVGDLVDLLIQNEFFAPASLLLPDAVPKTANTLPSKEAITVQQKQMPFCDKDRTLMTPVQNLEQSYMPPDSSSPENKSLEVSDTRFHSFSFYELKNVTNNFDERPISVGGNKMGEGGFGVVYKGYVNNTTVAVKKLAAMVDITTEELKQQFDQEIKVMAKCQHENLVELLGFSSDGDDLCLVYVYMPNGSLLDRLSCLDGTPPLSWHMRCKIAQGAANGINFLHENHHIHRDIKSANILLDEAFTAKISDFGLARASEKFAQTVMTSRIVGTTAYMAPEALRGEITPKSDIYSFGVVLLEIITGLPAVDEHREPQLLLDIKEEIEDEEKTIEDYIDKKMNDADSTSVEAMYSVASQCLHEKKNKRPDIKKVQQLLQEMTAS
The assay can be described thus: Kinase selectivity panel: IRAK4. The assay is classed as biochemical.

The target in assay [8] is MARK2 (Homo sapiens, UniProt Q7KZI7). The assay is described as follows: Kinase selectivity panel: MARK2. The class given is biochemical.
Chain of MARK2 (Q7KZI7 whole entry, species assumed): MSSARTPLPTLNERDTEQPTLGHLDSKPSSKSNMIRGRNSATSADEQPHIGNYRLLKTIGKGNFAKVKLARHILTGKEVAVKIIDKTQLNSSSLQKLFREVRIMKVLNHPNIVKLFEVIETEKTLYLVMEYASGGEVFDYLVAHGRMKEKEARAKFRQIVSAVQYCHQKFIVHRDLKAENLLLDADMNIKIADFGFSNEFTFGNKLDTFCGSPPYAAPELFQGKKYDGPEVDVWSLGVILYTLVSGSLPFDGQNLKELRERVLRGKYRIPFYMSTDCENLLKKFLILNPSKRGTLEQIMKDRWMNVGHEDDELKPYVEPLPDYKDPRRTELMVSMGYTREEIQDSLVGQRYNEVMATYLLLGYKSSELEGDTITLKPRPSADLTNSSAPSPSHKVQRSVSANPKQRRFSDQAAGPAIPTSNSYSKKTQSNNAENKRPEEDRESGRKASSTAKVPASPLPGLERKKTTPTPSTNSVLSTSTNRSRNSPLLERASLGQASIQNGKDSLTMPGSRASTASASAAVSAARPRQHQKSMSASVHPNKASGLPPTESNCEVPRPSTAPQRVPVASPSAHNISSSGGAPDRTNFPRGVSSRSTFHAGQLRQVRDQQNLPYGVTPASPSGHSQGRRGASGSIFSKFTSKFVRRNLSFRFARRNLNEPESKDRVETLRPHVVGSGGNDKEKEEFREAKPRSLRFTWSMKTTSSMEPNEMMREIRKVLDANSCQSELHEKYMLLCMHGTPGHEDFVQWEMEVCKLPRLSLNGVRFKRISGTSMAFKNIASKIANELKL

Chain of G2019S LRRK2 (Q5S007 969-2527 G2019S): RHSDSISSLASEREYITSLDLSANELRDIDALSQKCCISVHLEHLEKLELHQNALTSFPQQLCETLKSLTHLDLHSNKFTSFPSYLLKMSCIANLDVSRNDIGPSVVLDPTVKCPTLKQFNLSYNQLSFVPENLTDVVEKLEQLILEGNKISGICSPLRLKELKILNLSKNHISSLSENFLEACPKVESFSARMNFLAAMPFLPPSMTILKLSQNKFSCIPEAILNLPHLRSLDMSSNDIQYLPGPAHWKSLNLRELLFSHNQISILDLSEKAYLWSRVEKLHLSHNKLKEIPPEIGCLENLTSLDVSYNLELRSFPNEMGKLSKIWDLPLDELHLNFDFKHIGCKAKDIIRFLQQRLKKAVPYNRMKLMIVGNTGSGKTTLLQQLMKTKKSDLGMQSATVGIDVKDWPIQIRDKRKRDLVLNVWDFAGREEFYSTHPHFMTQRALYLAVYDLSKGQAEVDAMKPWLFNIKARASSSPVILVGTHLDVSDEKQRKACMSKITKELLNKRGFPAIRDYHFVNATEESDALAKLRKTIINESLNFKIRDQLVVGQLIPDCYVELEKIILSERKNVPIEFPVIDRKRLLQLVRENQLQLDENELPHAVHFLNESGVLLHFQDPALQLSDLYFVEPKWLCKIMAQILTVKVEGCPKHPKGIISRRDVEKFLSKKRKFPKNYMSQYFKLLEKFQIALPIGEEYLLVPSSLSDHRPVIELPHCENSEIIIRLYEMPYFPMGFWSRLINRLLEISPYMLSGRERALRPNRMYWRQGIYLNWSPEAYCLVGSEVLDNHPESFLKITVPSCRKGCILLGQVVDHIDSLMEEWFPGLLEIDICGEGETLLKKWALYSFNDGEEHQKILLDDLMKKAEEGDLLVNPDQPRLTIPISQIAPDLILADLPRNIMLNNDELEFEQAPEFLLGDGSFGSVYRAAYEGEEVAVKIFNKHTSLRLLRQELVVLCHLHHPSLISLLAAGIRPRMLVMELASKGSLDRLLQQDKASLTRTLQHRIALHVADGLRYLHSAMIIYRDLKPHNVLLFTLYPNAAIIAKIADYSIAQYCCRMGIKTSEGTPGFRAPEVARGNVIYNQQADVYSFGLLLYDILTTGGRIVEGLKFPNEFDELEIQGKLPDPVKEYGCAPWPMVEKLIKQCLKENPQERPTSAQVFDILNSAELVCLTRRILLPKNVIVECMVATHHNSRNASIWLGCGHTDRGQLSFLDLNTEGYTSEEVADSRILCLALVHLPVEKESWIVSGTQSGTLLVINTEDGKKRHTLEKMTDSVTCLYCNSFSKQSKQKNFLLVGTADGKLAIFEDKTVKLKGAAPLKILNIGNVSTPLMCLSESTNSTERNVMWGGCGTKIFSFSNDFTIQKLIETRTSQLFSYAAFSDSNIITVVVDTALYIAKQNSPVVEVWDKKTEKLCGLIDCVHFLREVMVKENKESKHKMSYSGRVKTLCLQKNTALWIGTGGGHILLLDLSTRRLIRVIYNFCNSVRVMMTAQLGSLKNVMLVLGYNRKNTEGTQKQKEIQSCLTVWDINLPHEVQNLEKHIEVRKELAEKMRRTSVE
Chain of ABL1 (P00519 whole entry, species assumed): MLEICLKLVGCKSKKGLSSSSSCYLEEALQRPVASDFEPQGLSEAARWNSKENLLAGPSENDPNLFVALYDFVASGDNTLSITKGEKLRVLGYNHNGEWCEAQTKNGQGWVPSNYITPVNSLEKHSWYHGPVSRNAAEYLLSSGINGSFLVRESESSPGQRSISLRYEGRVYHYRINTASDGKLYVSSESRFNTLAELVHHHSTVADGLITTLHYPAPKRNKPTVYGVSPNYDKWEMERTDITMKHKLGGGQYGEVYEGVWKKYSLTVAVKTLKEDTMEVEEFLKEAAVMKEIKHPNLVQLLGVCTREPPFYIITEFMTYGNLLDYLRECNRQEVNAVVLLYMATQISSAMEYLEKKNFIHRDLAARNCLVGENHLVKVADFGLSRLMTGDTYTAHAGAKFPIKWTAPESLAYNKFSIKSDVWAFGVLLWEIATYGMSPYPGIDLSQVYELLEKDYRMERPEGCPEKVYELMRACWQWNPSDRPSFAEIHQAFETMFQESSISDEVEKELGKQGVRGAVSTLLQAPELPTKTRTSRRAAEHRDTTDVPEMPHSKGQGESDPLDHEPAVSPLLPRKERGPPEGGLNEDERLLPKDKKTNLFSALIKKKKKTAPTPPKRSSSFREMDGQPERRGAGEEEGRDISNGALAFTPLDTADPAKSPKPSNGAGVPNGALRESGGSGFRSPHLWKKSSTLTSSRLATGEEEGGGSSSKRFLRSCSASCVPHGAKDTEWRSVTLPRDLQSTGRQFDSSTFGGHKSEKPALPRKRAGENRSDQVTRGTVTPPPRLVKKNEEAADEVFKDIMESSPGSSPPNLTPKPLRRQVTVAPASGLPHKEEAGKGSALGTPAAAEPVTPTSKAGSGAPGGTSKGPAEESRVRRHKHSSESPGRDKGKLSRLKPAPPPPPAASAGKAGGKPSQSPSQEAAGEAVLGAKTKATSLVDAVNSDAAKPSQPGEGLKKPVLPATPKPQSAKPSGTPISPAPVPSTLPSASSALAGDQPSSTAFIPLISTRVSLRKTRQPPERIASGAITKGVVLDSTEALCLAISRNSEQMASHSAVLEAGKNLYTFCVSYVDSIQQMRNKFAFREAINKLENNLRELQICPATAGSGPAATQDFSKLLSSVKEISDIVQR
Chain of CDK5/p35 (Q00535 whole entry, species assumed): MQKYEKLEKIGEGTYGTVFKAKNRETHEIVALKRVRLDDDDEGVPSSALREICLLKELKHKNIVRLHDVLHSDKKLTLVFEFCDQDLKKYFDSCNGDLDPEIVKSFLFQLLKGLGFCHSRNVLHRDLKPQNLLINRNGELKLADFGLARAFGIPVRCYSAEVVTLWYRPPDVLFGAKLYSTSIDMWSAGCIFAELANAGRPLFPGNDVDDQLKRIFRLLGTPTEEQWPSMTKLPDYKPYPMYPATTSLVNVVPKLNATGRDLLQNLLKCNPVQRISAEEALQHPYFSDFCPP
Chain of CDK5/p35 (Q15078 whole entry partner, species assumed): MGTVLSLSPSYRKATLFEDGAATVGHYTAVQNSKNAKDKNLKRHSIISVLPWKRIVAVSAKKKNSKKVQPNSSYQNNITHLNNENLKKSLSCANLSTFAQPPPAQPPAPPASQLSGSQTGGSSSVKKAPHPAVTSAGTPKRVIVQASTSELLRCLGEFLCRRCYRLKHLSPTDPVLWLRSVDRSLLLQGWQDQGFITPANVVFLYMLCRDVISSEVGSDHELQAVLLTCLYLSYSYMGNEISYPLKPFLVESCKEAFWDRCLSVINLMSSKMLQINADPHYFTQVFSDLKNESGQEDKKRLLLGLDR
Chain of CAMK2D (Q13557 whole entry, species assumed): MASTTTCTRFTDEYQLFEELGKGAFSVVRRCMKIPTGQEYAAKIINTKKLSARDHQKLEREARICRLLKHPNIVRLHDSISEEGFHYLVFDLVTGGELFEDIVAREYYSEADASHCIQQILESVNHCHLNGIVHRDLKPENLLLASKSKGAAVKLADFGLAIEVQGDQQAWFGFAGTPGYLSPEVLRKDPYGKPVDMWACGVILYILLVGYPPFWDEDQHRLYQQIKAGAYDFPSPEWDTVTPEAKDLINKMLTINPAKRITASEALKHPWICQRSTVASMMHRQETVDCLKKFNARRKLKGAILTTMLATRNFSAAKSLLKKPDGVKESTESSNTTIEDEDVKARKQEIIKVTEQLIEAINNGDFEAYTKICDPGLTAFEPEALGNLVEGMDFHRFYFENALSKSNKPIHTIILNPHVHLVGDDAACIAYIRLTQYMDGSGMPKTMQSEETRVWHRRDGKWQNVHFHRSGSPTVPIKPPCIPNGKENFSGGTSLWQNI

For the molecule `Cc1cc(/C=C2\C(=O)Nc3ccccc32)[nH]n1` [Compound 1, (3Z)-3-[(3-methyl-1H-pyrazol-5-yl)methylene]indolin-2-one], the inhibition at 0.1 µM in assay [1] worked out at 22%.
In the case of `Cc1cnc(/C=C2\C(=O)Nc3ccccc32)[nH]1` [Compound 2, (3Z)-3-[(5-methyl-1H-imidazol-2-yl)methylene]indolin-2-one], in assay [1], the IC50 came out at 181 nM.
Same read-out and setting: to `Cc1ncc(/C=C2\C(=O)Nc3ccc(F)cc32)[nH]1` [Compound 3, (3Z)-5-fluoro-3-[(2-methyl-1H-imidazol-5-yl)methylene]indolin-2-one] belongs 38 nM.
Regarding `COc1ccc2c(c1)/C(=C/c1cnc(C)[nH]1)C(=O)N2` [Compound 4, (3Z)-5-methoxy-3-[(2-methyl-1H-imidazol-5-yl)methylene]indolin-2-one], the IC50 in assay [1] came out at 6.9 nM.
In the case of `O=C1Nc2ccccc2/C1=C/c1cc2cccnc2[nH]1` [Compound 5, (3Z)-3-(1H-pyrrolo[2,3-b]pyridin-2-ylmethylene)indolin-2-one], the inhibition at 10 µM in assay [1] came to 30%.
With `COc1ccc2c(c1)NC(=O)/C2=C\c1cnc(C)[nH]1` [Compound 6, (3Z)-6-methoxy-3-[(2-methyl-1H-imidazol-5-yl)methylene]indolin-2-one], in assay [1], the IC50 amounted to 127 nM.
Turning to `O=C1Nc2ccccc2/C1=C\c1nc2ccccc2s1` [Compound 7, (3E)-3-(1,3-benzothiazol-2-ylmethylene)indolin-2-one], the inhibition at 0.1 µM in assay [1] was -5%.
Consider `O=C1Nc2ccccc2/C1=C\c1cnc2ccccc2c1` [Compound 8, (3E)-3-(3-quinolylmethylene)indolin-2-one], for which, in assay [1], the IC50 is 872 nM.
With `O=C1Nc2ccccc2/C1=C\c1nc2ccccc2o1` [Compound 9, (3E)-3-(1,3-benzoxazol-2-ylmethylene)indolin-2-one], the inhibition at 10 µM in assay [1] worked out at 11%.
For `Cc1ncc(/C=C2\C(=O)Nc3ccc(Cl)cc32)[nH]1` [Compound 10, (3Z)-5-chloro-3-[(2-methyl-1H-imidazol-5-yl)methylene]indolin-2-one], in assay [1], the IC50 worked out at 16.4 nM.
On the same count and under the same terms, with `Cc1ncc(/C=C2\C(=O)Nc3ccc(OC(F)(F)F)cc32)[nH]1` [Compound 11, (3Z)-3-[(2-methyl-1H-imidazol-5-yl)methylene]-5-(trifluoromethoxy)indolin-2-one] the figure was 41.2 nM.
Regarding `COc1ccc2c(c1)/C(=C/c1cnc(C(C)C)[nH]1)C(=O)N2` [Compound 12, (3Z)-3-[(2-isopropyl-1H-imidazol-5-yl)methylene]-5-methoxy-indolin-2-one], the IC50 in assay [2] is above 10000 nM; in assay [3], 5260 nM; in assay [4] it was 275 nM; in assay [5], above 10000 nM; in assay [6], above 10000 nM; in assay [7], 3440 nM. Moreover, the results for the IC50 in assay [8] and in assay [1] were 1840 nM and 7.6 nM, respectively.
Consider `CCOc1ccc2c(c1)/C(=C/c1cnc(C)[nH]1)C(=O)N2` [Compound 13, (3Z)-5-ethoxy-3-[(2-methyl-1H-imidazol-5-yl)methylene]indolin-2-one], for which the half-inhibitory concentration (IC50) in assay [1] worked out at 3.1 nM.
As for `Cc1ncc(/C=C2\C(=O)Nc3ccc(OC(C)C)cc32)[nH]1` [Compound 14, (3Z)-5-isopropoxy-3-[(2-methyl-1H-imidazol-5-yl)methylene]indolin-2-one], the IC50 in assay [2] came to 860 nM; in assay [3], 50 nM; in assay [4] it was 615 nM; in assay [5], 258 nM; in assay [6], 999 nM; in assay [7] it was 655 nM. Moreover, the IC50 in assay [8] came out at 434 nM; in assay [1] it was 1.2 nM.
For the molecule `Cc1ncc(/C=C2\C(=O)Nc3ccc(S(C)(=O)=O)cc32)[nH]1` [Compound 15, (3Z)-3-[(2-methyl-1H-imidazol-5-yl)methylene]-5-methylsulfonyl-indolin-2-one], in assay [1], the IC50 came out at 125 nM.
On the same count and under the same terms, with `CCc1ncc(/C=C2\C(=O)Nc3ccc(OC)cc32)[nH]1` [Compound 16, (3Z)-3-[(2-ethyl-1H-imidazol-5-yl)methylene]-5-methoxy-indolin-2-one] the figure was 3.5 nM; with `COCc1ncc(/C=C2\C(=O)Nc3ccc(OC)cc32)[nH]1` [Compound 17, (3Z)-5-methoxy-3-[[2-(methoxymethyl)-1H-imidazol-5-yl]methylene]indolin-2-one], 38.7 nM.
For `COc1ccc2c(c1)/C(=C/c1cnc(C(C)(C)C)[nH]1)C(=O)N2` [Compound 19, (3Z)-3-[(2-tert-butyl-1H-imidazol-5-yl)methylene]-5-methoxy-indolin-2-one], the IC50 in assay [2] was above 10000 nM; in assay [3], above 10000 nM; in assay [4], 1470 nM; in assay [5] it was above 10000 nM; in assay [6], above 10000 nM; in assay [7], above 10000 nM. The figures for the IC50 in assay [8] and in assay [1] were above 10000 nM and 43.9 nM, respectively.

The term inhibition denotes the relative decrease from the control value, in per cent. By IC50 is commonly meant the midpoint of a concentration-inhibition curve.
